Measurements from patent EP1242382B1, “TRICYCLIC PROTEIN KINASE INHIBITORS” (Wyeth, priority 1999, dated 2001).

Tests used:
Raf-1 (c-Raf) = target: T1, Raf-1 (c-Raf) (Homo sapiens, UniProt P04049); assay: Raf1 kinase cascade assay procedure; assay type: biochemical
T1 construct: Sf9 insect cell lysate containing full length 6his-tagged recombinant human c-Raf; host or cells: c-Raf: Sf9 insect cell lysate; MEK1 and MAPK: E. coli

[1] = tested on: Human adenocarcinoma cell line LoVo; assay: Cell based screen for inhibitors of Raf kinase, quantitative assay; conditions: 96 h, four days incubation
Procedure: (§1) • Cell Lines: Human adenocarcinoma cell line LoVo which is known to be growth inhibited by low nM concentrations of a reference standard inhibitor of Ras and human adenocarcinoma cell line CaCo-2, which is known to be growth resistant to the same reference compound. • Cell Media : RPMI 1640 with 10% Fetal Bovine Serum supplemented with L-glutamine and Pennicilin/Streptomycin. • Compounds: Supplied usually as a 10 mM stock in 100% DMSO. • Normal Saline: 150 mM NaCl • Trichloroacetic Acid (TCA): 50% (w/v) in water • Sulforhodamine B (SRB): 0.4% (w/v) in 1% Acetic Acid • Tris Base: 10 mM in water
(§2) Cells are plated at 2000 cells per well for cell line LoVo and 1500 cells for cell line CaCo-2 in 96 well plates. Cells are plated in media (200 µl) and allowed to adhere overnight at 37°C. At 24 hours post plating, compounds are added directly at a volume of 0.5 µl. For the qualitative screen (compounds screened at 25 µM) compound is added directly to cells. For the quantitative screen, compound is first diluted in DMSO to generate concentrations of compound or reference standard of: 1, 5, 10 and 25 µM. It is advisable to make the dilutions in an identical 96 well plate so that compounds can be added using a multichannel micropipettor set at 0.5 µl. The cells are then incubated for four days after which the media is removed using a 12 well manifold by first tipping the plate forward at a 45 degree angle and then inserting the manifold in an upright orientation to prevent the tips of the manifold from disturbing cells at the bottom of the plate. 200 µl of normal saline is then added to each well using an 8 well multichannel pipettor, followed by the careful addition of 50 µl of 50% TCA. The plates are then incubated for 2 hours at 4°C, after which the supernatant is removed using the same technique as above and the plated washed twice with 200 µl water. The plates are then air dried and 50 µl of SRB stock solution is carefully added so that the entire bottom of each well is covered. This again can be used using an 8 well multichannel pipettor. The SRB is incubated with fixed cells for 15 minutes at room temperature after which the SRB is removed with the manifold as described above and the plates washed twice with 350 µl of 1% acetic acid per well each time. The plates are then air dried after which the bound SRB is released from protein by the addition of 200 µl of Tris base. Resolubilizing the SRB is aided by placing the plates on a rotator for 15-30 minutes. The absorbance of each well is determined at 550 or 562 nm using a microtiter plate reader.
(§3) Each compound or dilution thereof is performed in triplicate. Outliers are identified by visual inspection of the data. Each plate should have a "0" control (vehicle only).
(§4) Quantitative Assay: A standard curve is constructed by plotting the concentration of compound against the average absorbance calculated at that concentration. […] Multiple entries for a given compound indicate that it is tested multiple times.

[2] = tested on: human adenocarcinoma cell line CaCo-2; assay: as above; conditions: Caco-2, 96 h, four days incubation
Procedure: as §1, §2, §3, §4

T1 sequence (P04049 whole entry): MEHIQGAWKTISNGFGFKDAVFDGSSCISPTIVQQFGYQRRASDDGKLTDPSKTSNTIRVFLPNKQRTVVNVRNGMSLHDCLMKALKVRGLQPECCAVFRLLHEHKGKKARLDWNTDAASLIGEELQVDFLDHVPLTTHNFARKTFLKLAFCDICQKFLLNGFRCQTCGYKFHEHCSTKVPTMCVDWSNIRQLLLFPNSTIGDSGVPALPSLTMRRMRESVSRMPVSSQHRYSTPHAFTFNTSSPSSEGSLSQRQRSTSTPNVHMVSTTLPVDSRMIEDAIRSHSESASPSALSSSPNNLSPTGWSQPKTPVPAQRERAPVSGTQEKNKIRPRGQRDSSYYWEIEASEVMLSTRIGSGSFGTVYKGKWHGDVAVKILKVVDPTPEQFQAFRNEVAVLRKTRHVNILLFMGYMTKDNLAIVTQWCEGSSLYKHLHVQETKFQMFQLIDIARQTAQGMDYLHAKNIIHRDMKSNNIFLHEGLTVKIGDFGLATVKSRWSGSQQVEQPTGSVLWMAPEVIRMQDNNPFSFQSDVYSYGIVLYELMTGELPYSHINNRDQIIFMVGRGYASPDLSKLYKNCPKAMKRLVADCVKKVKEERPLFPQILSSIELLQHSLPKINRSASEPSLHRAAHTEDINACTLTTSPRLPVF

IC50 (Raf-1 (c-Raf)): 0.66 µM
IC50 [1]: 0.43 µM
IC50 [2]: 6 µM
Structure (SMILES): COc1cc2cc3c(Nc4ccc(OCc5ccccc5)c(Cl)c4)c(C#N)cnc3cc2cc1OCCN1CCOCC1 [Example 218, 4-(4-Benzyloxy-3-chlorophenylamino)-7-methoxy-8-(2-morpholin-4-yl-ethoxy)benzo[g]quinoline-3-carbonitrile]
